As a reminder, the Ki is a dissociation constant, usually derived from enzyme kinetics or from competition with a known ligand.

The values below come from ChEMBL document CHEMBL1139920, “Synthesis and biological evaluation of diamine-based histamine H3 antagonists with serotonin reuptake inhibitor activity” (Bioorg Med Chem Lett, 2007).

In experiment [1] the target is Sodium-dependent serotonin transporter (Rattus norvegicus, UniProt P31652). The experiment is described as follows: Binding affinity at rat SERT.
Experiment [2] has as its target T1, Histamine H3 receptor (Homo sapiens, UniProt Q9Y5N1). The experiment is described as follows: Binding affinity at human histamine H3 receptor.
Experiment [3] addresses Sodium-dependent serotonin transporter (Homo sapiens, UniProt P31645). The experiment is described as follows: Binding affinity at human SERT.
Experiment [4] addresses T2, Sodium-dependent noradrenaline transporter (Homo sapiens, UniProt P23975). Put plainly: Binding affinity at noradrenaline transporter at 1 uM.
Experiment [5] concerns the target T1, Histamine H3 receptor. The experiment is described as follows: Antagonist activity at human histamine H3 receptor. The format is functional. To be noted: read-out: pA2 (converted).
Experiment [6] addresses Histamine H2 receptor (Homo sapiens) (UniProt P25021). The experiment is described as follows: Binding affinity at histamine H2 receptor at 1 uM.
Experiment [7] concerns the target T2, Sodium-dependent noradrenaline transporter. The experiment is described as follows: Binding affinity at human noradrenaline transporter.

Sodium-dependent serotonin transporter (Rattus norvegicus, UniProt P31652), sequence (P31652 whole entry): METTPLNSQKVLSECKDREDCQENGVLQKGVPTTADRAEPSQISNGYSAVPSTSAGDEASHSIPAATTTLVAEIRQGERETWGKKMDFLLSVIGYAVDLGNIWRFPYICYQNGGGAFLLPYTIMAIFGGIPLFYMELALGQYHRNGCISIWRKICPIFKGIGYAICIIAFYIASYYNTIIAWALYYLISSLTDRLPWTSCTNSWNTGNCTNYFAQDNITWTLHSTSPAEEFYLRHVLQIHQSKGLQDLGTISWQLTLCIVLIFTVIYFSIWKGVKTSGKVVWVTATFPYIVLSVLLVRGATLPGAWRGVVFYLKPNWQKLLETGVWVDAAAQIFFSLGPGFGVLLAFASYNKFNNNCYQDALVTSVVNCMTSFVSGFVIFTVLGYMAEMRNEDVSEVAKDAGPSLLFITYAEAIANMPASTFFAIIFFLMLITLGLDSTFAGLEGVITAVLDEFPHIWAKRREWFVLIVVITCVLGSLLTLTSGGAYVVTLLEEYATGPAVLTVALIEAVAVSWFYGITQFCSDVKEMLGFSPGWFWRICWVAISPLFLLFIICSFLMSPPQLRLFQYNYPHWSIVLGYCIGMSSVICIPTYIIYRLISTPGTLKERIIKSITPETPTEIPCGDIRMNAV
Sodium-dependent serotonin transporter (Homo sapiens, UniProt P31645), sequence (P31645 whole entry): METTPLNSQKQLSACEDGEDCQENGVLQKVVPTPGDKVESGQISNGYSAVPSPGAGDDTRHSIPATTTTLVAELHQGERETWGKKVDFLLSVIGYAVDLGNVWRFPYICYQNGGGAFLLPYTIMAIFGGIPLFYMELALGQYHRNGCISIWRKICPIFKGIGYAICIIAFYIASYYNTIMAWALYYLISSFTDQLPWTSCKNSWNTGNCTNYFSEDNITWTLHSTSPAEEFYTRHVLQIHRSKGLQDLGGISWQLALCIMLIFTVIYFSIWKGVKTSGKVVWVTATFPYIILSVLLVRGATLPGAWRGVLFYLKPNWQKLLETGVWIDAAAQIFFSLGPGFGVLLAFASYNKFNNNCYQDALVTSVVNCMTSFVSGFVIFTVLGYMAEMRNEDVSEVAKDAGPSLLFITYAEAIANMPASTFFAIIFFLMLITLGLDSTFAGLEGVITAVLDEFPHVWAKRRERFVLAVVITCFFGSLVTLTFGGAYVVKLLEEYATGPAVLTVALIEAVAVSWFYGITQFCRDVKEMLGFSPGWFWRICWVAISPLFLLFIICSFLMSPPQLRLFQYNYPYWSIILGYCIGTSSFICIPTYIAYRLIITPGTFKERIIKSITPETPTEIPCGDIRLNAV
T1 sequence (Q9Y5N1 whole entry): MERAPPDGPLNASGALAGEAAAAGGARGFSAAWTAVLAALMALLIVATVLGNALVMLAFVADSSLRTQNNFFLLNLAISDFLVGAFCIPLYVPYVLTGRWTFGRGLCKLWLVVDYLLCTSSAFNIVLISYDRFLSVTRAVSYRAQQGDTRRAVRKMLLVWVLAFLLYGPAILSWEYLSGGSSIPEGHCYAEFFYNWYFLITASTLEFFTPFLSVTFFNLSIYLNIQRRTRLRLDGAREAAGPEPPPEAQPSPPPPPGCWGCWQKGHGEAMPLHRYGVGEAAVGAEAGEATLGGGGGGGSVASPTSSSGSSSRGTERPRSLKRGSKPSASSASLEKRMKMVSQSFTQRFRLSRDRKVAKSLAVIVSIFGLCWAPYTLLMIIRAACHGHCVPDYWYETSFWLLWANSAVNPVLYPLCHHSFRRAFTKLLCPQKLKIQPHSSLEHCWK
T2 sequence (P23975 whole entry): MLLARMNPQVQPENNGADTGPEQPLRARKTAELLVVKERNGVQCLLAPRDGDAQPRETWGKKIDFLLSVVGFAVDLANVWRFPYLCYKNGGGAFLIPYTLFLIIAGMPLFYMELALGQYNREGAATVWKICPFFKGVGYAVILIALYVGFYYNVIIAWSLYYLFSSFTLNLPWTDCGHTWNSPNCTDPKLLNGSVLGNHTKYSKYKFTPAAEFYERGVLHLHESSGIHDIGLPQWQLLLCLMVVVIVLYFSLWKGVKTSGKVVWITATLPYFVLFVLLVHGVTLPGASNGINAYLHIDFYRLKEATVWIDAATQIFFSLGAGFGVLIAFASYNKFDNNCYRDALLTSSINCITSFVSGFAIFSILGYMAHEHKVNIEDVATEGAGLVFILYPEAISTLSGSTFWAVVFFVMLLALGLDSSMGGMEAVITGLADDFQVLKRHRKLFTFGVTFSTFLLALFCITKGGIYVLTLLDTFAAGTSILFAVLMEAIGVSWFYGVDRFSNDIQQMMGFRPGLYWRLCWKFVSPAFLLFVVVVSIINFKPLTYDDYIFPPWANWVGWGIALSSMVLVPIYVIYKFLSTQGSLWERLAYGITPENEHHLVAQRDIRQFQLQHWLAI
Histamine H2 receptor (Homo sapiens), sequence (P25021 whole entry): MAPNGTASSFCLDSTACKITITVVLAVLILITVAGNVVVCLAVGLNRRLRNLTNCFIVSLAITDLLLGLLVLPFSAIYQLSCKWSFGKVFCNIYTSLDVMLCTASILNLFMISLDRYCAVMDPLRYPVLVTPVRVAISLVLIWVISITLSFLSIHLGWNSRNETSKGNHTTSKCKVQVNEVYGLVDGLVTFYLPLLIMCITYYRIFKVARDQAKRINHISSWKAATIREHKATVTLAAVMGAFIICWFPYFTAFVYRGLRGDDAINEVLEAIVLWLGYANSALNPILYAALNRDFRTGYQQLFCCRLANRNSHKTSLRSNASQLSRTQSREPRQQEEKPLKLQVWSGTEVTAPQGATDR

Consider `CC(C)N1CCC(Oc2ccc(C(CCN(C)C)Oc3ccccc3)cc2)CC1` (stereo not given), for which the affinity in experiment [1], expressed as Ki, was 39 nM.
As for `CN(C)CCC(Oc1ccccc1)c1ccc(C#CCCN2CCCCC2)cc1` (stereo not given), the Ki in experiment [1] stood at 6 nM; on Histamine H3 receptor [2], 1.3 nM.
Consider `CN(C)CCC(Oc1ccc(C(F)(F)F)cc1)c1ccccc1` (stereo not given), for which the Ki was found to be 7.7 nM in experiment [1], 8.3 nM in experiment [3] and 6630 nM on Histamine H3 receptor [2].
The compound `CN(C)CCC(Oc1ccc(Cl)c(Cl)c1)c1ccc(OCCCN2CCCCC2)cc1` (stereo in doubt; 40) displayed a Ki in experiment [1] of 7.7 nM.
The same measure, in the same setting: next, `CN(C)CCC(Oc1ccc(Cl)c(Cl)c1)c1ccc(OCCCN2CCCCC2)cc1` (stereo in doubt; 39): 7 nM.
As to `CN(C)CCC(Oc1ccccc1)c1cccc(OCCCN2CCCCC2)c1` (stereo not given), the Ki on Histamine H3 receptor [2] came out at 3.3 nM.
Take `CN(C)CCC(Oc1ccc(C#N)cc1)c1ccc(OCCCN2CCCCC2)cc1` (stereo not given): in experiment [1], affinity was put at a Ki of 7.7 nM.
The same measure, in the same setting: next, `CN(C)CCC(Oc1ccc(Cl)cc1)c1ccc(OCCCN2CCCCC2)cc1` (stereo not given): 2.3 nM.
Turning to `CN(C)CCC(Oc1ccccc1)c1ccc(OCCCN2CCCCC2)cc1` (stereo not given), the Activity stood at 73% in experiment [4] and 66% in experiment [6]. For the same compound, the Kb at Histamine H3 receptor [5] was 0.501 nM. Also, the inhibitory constant (Ki) in experiment [7] amounted to 201 nM; at Histamine H3 receptor [2], 0.6 nM.
On Histamine H3 receptor [2], `COc1ccc(OC(CCN(C)C)c2ccc(OCCCN3CCCCC3)cc2)cc1` (stereo not given) had a Ki of 1 nM.
`Cc1ccc(OC(CCN(C)C)c2ccc(OCCCN3CCCCC3)cc2)cc1` (stereo not given) yielded a Ki on Histamine H3 receptor [2] of 0.7 nM.
On to `CC(C)N1CCN(C(=O)c2ccc(C(CCN(C)C)Oc3ccc(C(F)(F)F)cc3)cc2)CC1` (stereo not given), for which the Ki on Histamine H3 receptor [2] stood at 2.3 nM.
Consider `CN(C)CCC(Oc1cccc(Br)c1)c1ccc(OCCCN2CCCCC2)cc1` (stereo not given), for which the Ki in experiment [1] worked out at 2.3 nM.
Turning to `CN(C)CCC(Oc1ccc(C(F)(F)F)cc1)c1ccc(OCCCN2CCCCC2)cc1` (stereo not given), the inhibition constant Ki in experiment [1] is 10 nM; at Histamine H3 receptor [2], 2.7 nM.
Take `CN(C)CCC(Oc1ccc([N+](=O)[O-])cc1)c1ccc(OCCCN2CCCCC2)cc1` (stereo not given): the Ki in experiment [1] came out at 3.7 nM; in experiment [3], 8.7 nM.
In the case of `CN(C)CCC(Oc1ccc(Br)cc1)c1ccc(OCCCN2CCCCC2)cc1` (stereo not given), the affinity in experiment [3] corresponds to a Ki of 9 nM.
`CN(C)CCC(Oc1cccc(Cl)c1)c1ccc(OCCCN2CCCCC2)cc1` (stereo in doubt; 37): the Ki in experiment [3] was 2.7 nM; on Histamine H3 receptor [2], 0.9 nM.
In experiment [3], `CN(C)CCC(Oc1cccc(OCCCN2CCCCC2)c1)c1ccccc1` (stereo not given) displayed an inhibition constant (Ki) of 1480 nM.
Consider `CN(C)CCC(Oc1cccc(Cl)c1)c1ccc(OCCCN2CCCCC2)cc1` (stereo in doubt; 38), for which the results for the inhibition constant Ki (in experiment [3]; at Histamine H3 receptor [2]) were 21 nM and 0.9 nM, respectively.
Consider `CN(C)CCC(Oc1ccc(C(F)(F)F)cc1)c1ccc(C#CCCN2CCCCC2)cc1` (stereo not given), for which the figures for the inhibitory constant (Ki) (in experiment [1]; on Histamine H3 receptor [2]) were 33 nM and 5 nM, respectively.
The like results for `CC(C)N1CCN(C(=O)c2ccc(C(CCN(C)C)Oc3ccccc3)cc2)CC1` (stereo not given) were, in that order, 63 nM and 0.8 nM.
Consider `COc1cccc(OC(CCN(C)C)c2ccc(OCCCN3CCCCC3)cc2)c1` (stereo not given), for which, in experiment [1], the Ki was 2 nM.
